Results reported in patent publication US7196110B2, “N-substituted tricyclic 3-aminopyrazoles as inhibitors for the treatment of cell proliferative disorders” (Janssen Phamaceutica N.V., priority 2002, dated 2007).

Experiments:
c-Abl kinase = c-Abl kinase (Abelson murine leukemia virus, UniProt P00521); test: Inhibition of c-Abl kinase activity (cell-free, Abl peptide substrate, 33P Flashplate); format: biochemical; settings: IC50 for the c-Abl kinase activity
[1] = biological target: T1, PDGF-receptor beta enzyme comprising the tyrosine kinase domain (Homo sapiens, UniProt P09619); test: Inhibition of PDGF-receptor kinase activity (cell-free, PLC1 peptide, 33P Flashplate); format: biochemical; settings: PDGF-R kinase activity; for inhibition at 10 µM: compound at 10 uM, read-out: Percent Inhibition @ 10 uM; for IC50: read-out: IC50
T1 construct: from amino acid 545 to 1106 of GenBank Access NO: AAA36427
How it was run: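 Recombinant kinase domain (aa 545–1106) phosphorylated a biotinylated PLC1 peptide with 5 μM ATP plus 33P-γ-ATP, in Tris pH 8, MgCl2, Na3VO4 and 1 mM DTT, for 60 min at 30 °C. Retained 33P was counted after washing. IC50 is the concentration halving activity versus no-inhibitor reactions.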

Sequence of c-Abl kinase (P00521 115-385): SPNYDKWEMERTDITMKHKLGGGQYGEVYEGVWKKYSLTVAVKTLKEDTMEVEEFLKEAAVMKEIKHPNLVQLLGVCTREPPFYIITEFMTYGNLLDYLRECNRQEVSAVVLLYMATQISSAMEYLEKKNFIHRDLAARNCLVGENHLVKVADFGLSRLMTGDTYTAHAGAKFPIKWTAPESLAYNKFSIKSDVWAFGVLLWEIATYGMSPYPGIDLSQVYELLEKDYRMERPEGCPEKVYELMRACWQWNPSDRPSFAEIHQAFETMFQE
T1 sequence (P09619 545-1106): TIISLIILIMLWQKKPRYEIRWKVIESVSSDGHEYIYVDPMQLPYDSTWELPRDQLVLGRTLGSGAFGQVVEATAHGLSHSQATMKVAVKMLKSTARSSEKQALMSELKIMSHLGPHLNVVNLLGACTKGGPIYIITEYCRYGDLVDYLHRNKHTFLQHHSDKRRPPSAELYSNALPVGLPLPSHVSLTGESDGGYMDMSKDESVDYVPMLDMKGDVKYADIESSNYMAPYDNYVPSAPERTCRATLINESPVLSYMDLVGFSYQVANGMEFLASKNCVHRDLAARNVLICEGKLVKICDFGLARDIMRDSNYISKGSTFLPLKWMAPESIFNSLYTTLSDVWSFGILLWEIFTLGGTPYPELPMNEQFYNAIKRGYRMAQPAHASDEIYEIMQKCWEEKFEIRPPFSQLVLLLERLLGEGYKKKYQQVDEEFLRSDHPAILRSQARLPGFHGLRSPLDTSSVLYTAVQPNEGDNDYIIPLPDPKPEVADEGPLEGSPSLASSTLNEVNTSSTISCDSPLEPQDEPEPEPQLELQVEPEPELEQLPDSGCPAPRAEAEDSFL

SMILES	IC50 (c-Abl kinase) [nM]	inhibition at 10 µM [1] [%]	IC50 [1] [nM]
COc1cccc(Nc2[nH]nc3c2Cc2cc(F)c(OC)cc2-3)c1 [Compound 360, (6-Fluoro-7-methoxy-2,4-dihydro-indeno[1,2-c]pyrazol-3-yl)-(3-methoxy-phenyl)-amine]	77	98	7.5
COc1cc2c(cc1F)Cc1c-2n[nH]c1Nc1ccc(F)cc1 [Compound 361, (6-Fluoro-7-methoxy-2,4-dihydro-indeno[1,2-c]pyrazol-3-yl)-(4-fluoro-phenyl)-amine]	43	100	11.6
COc1cc2c(cc1O)Cc1c-2n[nH]c1Nc1cccc(F)c1 [Compound 363, 3-(3-Fluoro-phenylamino)-7-methoxy-2,4-dihydro-indeno[1,2-c]pyrazol-6-ol]	1	76.5	5.47
COc1cc2c(cc1Br)Cc1c-2n[nH]c1Nc1cccc(F)c1 [Compound 369, (6-Bromo-7-methoxy-2,4-dihydro-indeno[1,2-c]pyrazol-3-yl)-(3-fluoro-phenyl)-amine]	47	100	18.7
COc1cccc(Nc2[nH]nc3c2Cc2cc(Br)c(OC)cc2-3)c1 [Compound 370, (6-Bromo-7-methoxy-2,4-dihydro-indeno[1,2-c]pyrazol-3-yl)-(3-methoxy-phenyl)-amine]	6	94	12.2
CCOc1cc2c(cc1OCCCO)-c1n[nH]c(Nc3cccnc3)c1C2 [Compound 371, 3-[6-Ethoxy-3-(pyridin-3-ylamino)-2,4-dihydro-indeno[1,2-c]pyrazol-7-yloxy]-propan-1-ol]	905	100	47.6
OCCCOc1cc2c(cc1OCCCO)-c1n[nH]c(Nc3cccc(Cl)c3)c1C2 [Compound 373, 3-[3-(3-Chloro-phenylamino)-7-(3-hydroxy-propoxy)-2,4-dihydro-indeno[1,2-c]pyrazol-6-yloxy]-propan-1-ol]	10	100	3.77
CCOc1cccc(Nc2[nH]nc3c2Cc2cc(OC)c(OC)cc2-3)c1 [Compound 374, (6,7-Dimethoxy-2,4-dihydro-indeno[1,2-c]pyrazol-3-yl)-(3-ethoxy-phenyl)-amine]	51	100	14.1
CCOc1cccc(Nc2[nH]nc3c2Cc2cc(OCCCO)c(OC)cc2-3)c1 [Compound 376, 3-[3-(3-Ethoxy-phenylamino)-7-methoxy-2,4-dihydro-indeno[1,2-c]pyrazol-6-yloxy]-propan-1-ol]	60	100	9.1
CCOc1cccc(Nc2[nH]nc3c2Cc2cc(OCC(O)CO)c(OC)cc2-3)c1 (stereo not drawn) [Compound 379, 3-[3-(3-Ethoxy-phenylamino)-7-methoxy-2,4-dihydro-indeno[1,2-c]pyrazol-6-yloxy]-propane-1,2-diol]	14	100	8.12
Fc1cccc(Nc2[nH]nc3c2oc2ccccc23)c1 [Compound 380, (3-Fluoro-phenyl)-(2H-8-oxa-2,3-diaza-cyclopenta[a]inden-1-yl)-amine]	327	99.5	15.3
Fc1ccc(Nc2[nH]nc3c2oc2ccccc23)cc1Cl [Compound 381, (3-Chloro-4-fluoro-phenyl)-(2H-8-oxa-2,3-diaza-cyclopenta[a]inden-1-yl)-amine]	1500	100	54.9
CCOc1cc2c(cc1OCCCO)Cc1c-2n[nH]c1Nc1cccc(F)c1 [Compound 382, 3-[7-Ethoxy-3-(3-fluoro-phenylamino)-2,4-dihydro-indeno[1,2-c]pyrazol-6-yloxy]-propan-1-ol]	19	100	11.9
CCOc1cc2c(cc1OCCCO)Cc1c-2n[nH]c1Nc1cccnc1 [Compound 383, 3-[7-Ethoxy-3-(pyridin-3-ylamino)-2,4-dihydro-indeno[1,2-c]pyrazol-6-yloxy]-propan-1-ol]	183	93	25.3
CCOc1cc2c(cc1OCCCO)Cc1c-2n[nH]c1Nc1cccc(OC)c1 [Compound 384, 3-[7-Ethoxy-3-(3-methoxy-phenylamino)-2,4-dihydro-indeno[1,2-c]pyrazol-6-yloxy]-propan-1-ol]	4	100	5.61
COc1cc2c(cc1OCCCO)Cc1c-2n[nH]c1NCc1ccccc1Cl [Compound 385, 3-[3-(2-Chloro-benzylamino)-7-methoxy-2,4-dihydro-indeno[1,2-c]pyrazol-6-yloxy]-propan-1-ol]	12	98.5	4.07

SMILES	IC50 (c-Abl kinase) [nM]	inhibition at 10 µM [1] [%]	IC50 [1] [nM]
COc1cc2c(cc1OCCCO)Cc1c-2n[nH]c1NCc1ccccc1F [Compound 386, 3-[3-(2-Fluoro-benzylamino)-7-methoxy-2,4-dihydro-indeno[1,2-c]pyrazol-6-yloxy]-propan-1-ol]	20	95.5	11
OCCCOc1cc2c(cc1OCCCO)-c1n[nH]c(Nc3ccc(F)c(Cl)c3)c1C2 [Compound 389, 3-[3-(3-Chloro-4-fluoro-phenylamino)-7-(3-hydroxy-propoxy)-2,4-dihydro-indeno[1,2-c]pyrazol-6-yloxy]-propan-1-ol]	17	98	15.1
COc1cc2c(cc1OCC(O)CN1CCCC1)Cc1c-2n[nH]c1NCc1c(F)cccc1F (stereo not drawn) [Compound 391, 1-[3-(2,6-Difluoro-benzylamino)-7-methoxy-2,4-dihydro-indeno[1,2-c]pyrazol-6-yloxy]-3-pyrrolidin-1-yl-propan-2-ol]	14	99	6.8
COc1cc2c(cc1OCC(O)CN1CCCC1)Cc1c-2n[nH]c1NCc1ccccc1Cl (stereo not drawn) [Compound 396, 1-[3-(2-Chloro-benzylamino)-7-methoxy-2,4-dihydro-indeno[1,2-c]pyrazol-6-yloxy]-3-pyrrolidin-1-yl-propan-2-ol]	2	99.5	5.13
OCCCOc1cc2c(cc1OCCCO)-c1n[nH]c(Nc3cccc(F)c3)c1C2 [Compound 398, 3-[3-(3-Fluoro-phenylamino)-6-(3-hydroxy-propoxy)-2,4-dihydro-indeno[1,2-c]pyrazol-7-yloxy]-propan-1-ol]	10	96	6.82
COc1cccc(Nc2[nH]nc3c2Cc2cc(OCCCO)c(OCCCO)cc2-3)c1 [Compound 400, 3-[7-(3-Hydroxy-propoxy)-3-(3-methoxy-phenylamino)-2,4-dihydro-indeno[1,2-c]pyrazol-6-yloxy]-propan-1-ol]	5	98.5	2.92
CCOc1cccc(Nc2[nH]nc3c2Cc2cc(OCCCO)c(OCCCO)cc2-3)c1 [Compound 401, 3-[3-(3-Ethoxy-phenylamino)-7-(3-hydroxy-propoxy)-2,4-dihydro-indeno[1,2-c]pyrazol-6-yloxy]-propan-1-ol]	14	98.5	22
Clc1cccc(Cl)c1CNc1[nH]nc2c1Cc1c(OCCCN3CCOCC3)cccc1-2 [Compound 415, (2,6-Dichloro-benzyl)-[5-(3-morpholin-4-yl-propoxy)-2,4-dihydro-indeno[1,2-c]pyrazol-3-yl]-amine]	219	98	25.8
CCC1c2cc(OC)c(OC)cc2-c2n[nH]c(Nc3cccc(Cl)c3)c21 (stereo not drawn) [Compound 419, (3-Chloro-phenyl)-(4-ethyl-6,7-dimethoxy-2,4-dihydro-indeno[1,2-c]pyrazol-3-yl)-amine]	292	100	62.1
COc1cccc2c1Cc1c-2n[nH]c1Nc1cccc(F)c1 [Compound 422, (3-Fluoro-phenyl)-(5-methoxy-2,4-dihydro-indeno[1,2-c]pyrazol-3-yl)-amine]	3080	83	29.7
COc1cc2c(cc1OCCCO)Cc1c-2n[nH]c1NCc1c(Cl)cccc1Cl [Compound 448, 3-[3-(2,6-Dichloro-benzylamino)-7-methoxy-2,4-dihydro-indeno[1,2-c]pyrazol-6-yloxy]-propan-1-ol]	3	100	1.77
COc1cc2c(cc1OCCCO)Cc1c-2n[nH]c1NCc1c(F)cccc1F [Compound 449, 3-[3-(2,6-Difluoro-benzylamino)-7-methoxy-2,4-dihydro-indeno[1,2-c]pyrazol-6-yloxy]-propan-1-ol]	23	98.5	4.1
COc1cc2c(cc1OCC(O)CO)Cc1c-2n[nH]c1NCc1c(F)cccc1F (stereo not drawn) [Compound 457, 3-[3-(2,6-Difluoro-benzylamino)-7-methoxy-2,4-dihydro-indeno[1,2-c]pyrazol-6-yloxy]-propane-1,2-diol]	4	100	3.41
CCOC(=O)CC(=O)n1nc(Nc2cccc(F)c2)c2c1-c1cc(OC)c(OC)cc1C2 [Compound 459, 3-[3-(3-Fluoro-phenylamino)-6,7-dimethoxy-4H-indeno[1,2-c]pyrazol-1-yl]-3-oxo-propionic acid ethyl ester]	70	100	36.5
CCOc1cc2c(cc1OCC(O)CN1CCCC1)-c1n[nH]c(Nc3cccc(F)c3)c1C2 (stereo not drawn) [Compound 460, 1-[6-Ethoxy-3-(3-fluoro-phenylamino)-2,4-dihydro-indeno[1,2-c]pyrazol-7-yloxy]-3-pyrrolidin-1-yl-propan-2-ol]	4	97.5	4.27
